Reference: PMC5100903, “Tissue Kallikrein Inhibitors Based on the Sunflower Trypsin Inhibitor Scaffold – A Potential Therapeutic Intervention for Skin Diseases” (PLoS ONE, 2016)
Like-named read-outs stand apart in the source and are kept apart here. Positions of bridges follow the written chain, without caps; N, C: chain ends. Residues, ends and D or L forms follow the SMILES beside them.

Columns and labels:
[1] = amide bond, 42-membered ring, MESNa (NCL via N-S acyl transfer), then NH4HCO3 oxidation, 0.1 M Na phosphate pH 5.8, 55.0 °C, 2 steps
[2] = target: T1, KLK5 (Homo sapiens, UniProt Q9Y337); experiment: biochemical
T1 construct: purchased Novoprotein
T1 sequence (Q9Y337 23-293): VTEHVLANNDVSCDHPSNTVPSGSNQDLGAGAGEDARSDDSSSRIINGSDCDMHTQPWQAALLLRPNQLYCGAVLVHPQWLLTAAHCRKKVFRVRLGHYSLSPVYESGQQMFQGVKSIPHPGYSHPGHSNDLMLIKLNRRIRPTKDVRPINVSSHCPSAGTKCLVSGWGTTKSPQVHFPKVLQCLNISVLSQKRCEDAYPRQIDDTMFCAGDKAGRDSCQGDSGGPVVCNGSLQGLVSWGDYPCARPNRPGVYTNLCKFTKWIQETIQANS
Experimental: (§1) All assays were performed on 96-well microplates and the change in relative fluorescence unit (RFU) was measured by fluorescence spectrometer (BMG FLUOstar OPTIMA). The excitation/emission wavelength was 360/460 nm for the substrate Boc-VPR-AMC (Bachem AG, Hauptstrasse, Switzerland) and MeOSuc-AAPV-AMC (Bachem AG, Hauptstrasse, Switzerland) and 485/520 nm for BODIPY_FL casein (Invitrogen, Carlsbad, US). Stock solution of Boc-VPR-AMC was prepared by dissolving the solid in dimethyl sulfoxide to 100 mM and 10 mM for MeOSuc-AAPV. For BODIPY_FL casein, it was reconstituted to 1 mg/mL in 1xPBS. […] The % of inhibition was calculated by the following equation: % of Inhibition=(1−(Sample RFU − Min RFU)/(Max RFU − Min RFU)) X100
(§2) Each inhibition curves were done in triplicates with a minimum of five concentration points fitted. Fitting of each curve was done using SigmaPlot with the Four Parameter Logistic Function and the IC50 calculated. […] All tested compounds were reconstituted to stock solution in water.
The diluent for all the tested compounds, protein and substrate was 1xPBS. Serially diluted ligands were mixed with diluted recombinant KLK5 (10 nM f/c). The ligand-protein mixtures were incubated on ice for one hour and 19.5 μL was pipetted into a well of a 96-well microplate in triplicates. To start the reaction, 100 μL of the diluted (41.6 μM f/c) Boc-VPR-AMC substrate solution (contained 0.05% v/v Brij35) was added. The plate was incubated at 37°C and the RFU reading was taken 15 minutes after.
There are two previously reported Km values for KLK5 and its substrate Boc-VPR-AMC which allowed the IC50 to Ki conversion. Ki values were calculated according to the Cheng-Prusoff equation Ki= IC50/1+[S]/Km for single site competitive binding.

[3] = target: T1, KLK5; experiment: biochemical; format: binding
Experimental: ITC experiments were performed on a MicroCal iTC200 calorimeter (GE Healthcare, Uppsala, Sweden) at 298.15 K with a stirring speed of 750 revolutions per minute. Concentrated (450 μM) ligand solutions were injected into protein (KLK5) solution (20 μM, 280 μL sample volume) in the sample cell. Injection volumes were 2 μL for I10H and Analogue 1 and 1 μL for Analogue 2 and 6 with a spacing of 120 seconds between each injection. Concentrations of ligands were determined by dried weight and they were reconstituted to 10 mM stock in H2O. Concentration of KLK5 was determined by UV280 calculated with an extinction coefficient of 38680 and molecular weight of 32KDa (including weight of glycosylation). The protein solution were buffer exchanged using spin column to 1xPBS (137 mM NaCl, 2.7 mM KCl, 4.3 mM Na2HPO4, 1.47 mM KH2PO4 pH 8.0) or 20 mM MES buffer (with 150 mM NaCl, pH 5.5). Ligand stocks were diluted in those buffers (4.5 μL + 95.5 μL buffer), and then equal v/v % of H2O was added to the protein solution after buffer exchange to ensure matching buffer contents. Heat of dilution was undetectable in control experiments. Data were analyzed using OriginLab version 7.0.

[4] = target: T2, KLK7 (Homo sapiens, UniProt P49862); experiment: biochemical
T2 construct: purchased R&D
Experimental: as §1, §2
Recombinant KLK7, KLK8 and KLK14 (>95% purity by SDS-PAGE, endotoxin <0.1 ng/μg, R&D, Minneapolis, U.S.) stocks were diluted with 1xPBS to a concentration of 120 nM. KLK7 and KLK14 were activated by addition of 1 mM f/c CaCl2 (Sigma, Dorset, U.K.), 0.05% v/v Brij35 (Sigma, Dorset, U.K.), 20 nM f/c thermolysin (Sigma, Dorset, U.K.) and incubated at 37°C for 1 hour. The reaction was stopped by addition of ethylenediaminetetraacetic acid (EDTA, 50 mM f/c). KLK8 was activated by addition of 11 nM f/c lysyl endopeptidase (Santa Cruz Biotechnology, Dallas, U.S.) and incubation at 37°C for 0.5 hour. […] The RFU value reached by the thermolysin control was used as the minimum RFU for calculating the % of inhibition for KLK7.
The diluent for all the tested compounds, protein and substrate (except KLK7, which was done with 10 mM Tris pH 7.8) was 1xPBS pH 8.0–8.9. The serially diluted ligands were mixed with diluted bovine trypsin (Sigma, Dorset, U.K.) or activated KLK14, or KLK5, or activated KLK8 or matriptase (catalytic domain only, >90% purity by SDS-PAGE, endotoxin <0.1 ng/μg, R&D, Minneapolis, U.S.) or activated KLK7 or human neutrophil elastase (purified from human plasma, >95% purity by SDS-PAGE, Abcam, Cambridge, U.K.) or porcine pancreatic elastase 1 (Sigma, Dorset, U.K.) or human plasma kallikrein or human plasma plasmin (purified from human plasma, ≥95% purity by SDS-PAGE, BioVision, Milpitas, U.S.). 20μL of the ligand-protein mixture was pipetted to a well of a 96-well microplate in triplicates. The reaction was started by addition of 90–100 μL of the diluted substrate solution (contained 0.05% v/v Brij35) and the plate incubated at 25°C but 37°C for KLK7. RFU reading for each well was taken 6 minutes (trypsin) or 15 minutes (KLK14, KLK5, KLK8, matriptase, human neutrophil elastase, porcine pancreatic elastase 1, plasma kallikrein and plasmin) or 20 hours (KLK7) after substrate addition.

[5] = target: T1, KLK5; experiment: KLK5 inhibition, fluorogenic Boc-VPR-AMC assay (S1 Table conditions); format: biochemical; details: read-out: BOC-VPR-AMC IC50 (N = 3); KLK5 10 nM, Boc-VPR-AMC 41.6 μM, 1xPBS pH 8.0, 15 min on ice preincubation, read at 15 min, 25°C
Experimental: as §1, with “The excitation/emission wavelength was 360/460 nm for the substrate Boc-VPR-AMC (Bachem AG, Hauptstrasse, Switzerland) and MeOSuc-AAPV-AMC (Bachem AG, Hauptstrasse, Switzerland) and 485/520 nm for BODIPY_FL casein (Invitrogen, Carlsbad, US).” left out
as §2
The diluent for all the tested compounds, protein and substrate was 1xPBS pH 8.0. Zinc sulfate and p-aminobenzamidine were purchased from Sigma (Dorset, U.K.). […] The ligand-protein mixtures were incubated on ice for 15 minutes and 20 μL was transferred to a well of a 96-well microplate (ThermoScientific, Waltham, U.S.) in triplicate. […] Change in RFU was measured 15 minutes after substrate addition at 25°C.

T2 sequence (P49862 30-253): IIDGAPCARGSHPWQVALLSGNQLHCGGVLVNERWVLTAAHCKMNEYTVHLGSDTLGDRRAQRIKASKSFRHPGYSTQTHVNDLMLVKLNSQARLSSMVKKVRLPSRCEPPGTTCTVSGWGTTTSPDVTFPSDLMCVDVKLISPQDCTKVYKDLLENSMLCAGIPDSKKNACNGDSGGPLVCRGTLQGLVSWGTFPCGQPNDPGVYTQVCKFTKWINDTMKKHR

With GRCTRSIPPHCWPD the ring closure, yield after HPLC ([1]; 0.58 mM) was 24%.
NRCTKSIPPHCFPD gave a ring closure, yield after HPLC ([1]; 0.58 mM) of 25%.
For CC[C@H](C)[C@@H]1NC(=O)[C@H](CO)NC(=O)[C@H](CCCNC(=N)N)NC(=O)[C@H]([C@@H](C)O)NC(=O)[C@@H]2CSSC[C@H](NC(=O)[C@H](Cc3c[nH]cn3)NC(=O)[C@@H]3CCCN3C(=O)[C@@H]3CCCN3C1=O)C(=O)N[C@@H](Cc1ccccc1)C(=O)N1CCC[C@H]1C(=O)N[C@@H](CC(=O)O)C(=O)NCC(=O)N[C@@H](CCCNC(=N)N)C(=O)N2 [Analogue 1] (cyclo(CFPDGRCTRSIPPH); disulfide 1-7), the IC50 [2] was 65 ± 10 nM, the Ki [2] was 60 nM and the Kd [3] was 115 nM. The “Stoichiometry (N)” value ([3]; ITC, 1xPBS pH 8.0, 25°C) was 1.03±0.01, the ΔH ([3]; ITC, 1xPBS pH 8.0, 25°C) was 1.216 ± 0.021 kcal/mol and the ΔS ([3]; ITC, 1xPBS pH 8.0, 25°C) was 35.8 cal mol^-1 kelvin^-1. The ΔG ([3]; ITC, 25°C) was -9.457 kcal/mol, the Ka ([3]; ITC, 25°C (Table S2, unit not given)) was 8.7E6±2.7E6 and the IC50 [4] was 2290 ± 68 nM.
Work on GRCTKSIPPHCWPD yielded a ring closure, yield after HPLC ([1]; 0.59 mM) of 25%.
GRCTKSIPPHCYPD showed a ring closure, yield after HPLC ([1]; 0.6 mM) of 19%.
In the case of N=C(N)c1ccc(N)cc1 [p-Aminobenzamidine], the IC50 [5] is reported as 60400 nM.
In the case of O=S(=O)([O-])[O-].[Zn+2] [Zinc Sulfate], the IC50 [5] is reported as 2940 nM.
GRCTRSIPPHCFPD showed a ring closure, yield after HPLC ([1]; 0.59 mM) of 24%.
Molecule GRCTKSKPPHCFPD has a ring closure, yield after HPLC ([1]; 0.6 mM) of 16%.
With GRCTKSIPPHCFPD the ring closure, yield after HPLC ([1]; 0.6 mM) was 19%.
